Data published in US6372957B1, “Transgenic mouse comprising a MEF2 binding site operatively linked to an indicator gene and methods of use” (Board of Regents, The University of Texas System, priority 1998, dated 2002).

Tests used:
[1] = system: GAL4-MEF2C fusion protein; assay: GAL4-dependent reporter with GAL4 fused to the C-terminus of MEF2C (transcription activation domains) in cardiomyocytes; format: cell-based; conditions: stimulation of cardiomyocytes
Source text: FIG. 6. Phenylephrine induces MEF2C transcriptional activity through a CaMK-dependent pathway. Cardiomyocytes were transiently transfected with expression vectors encoding GAL4-MEF2C and a GAL4-dependent reporter gene in the presence and absence of PE and the CaMK inhibitor KN-93.
In light of the ability of MEF2 to respond to calcium-dependent signal transduction pathways in T cells, the inventors have investigated whether the same pathways also activate MEF2 in cardiomyocytes. […] When the C-terminus of MEF2C, which contains the transcription activation domains (TADs), but lacks the MADS and MEF2 domains required for DNA binding and dimerization, is fused to the DNA binding domain of the yeast transcription factor GAL4, the resulting GAL4-MEF2C fusion protein retains sensitivity to calcineurin and CaMKIV (FIG. 5). This GAL4-MEF2C fusion protein is also activated by stimulation of cardiomyocytes with the hypertrophic agonist phenylephrine (PE) (FIG. 6).

MEF2 [2] = assay: MEF2 DNA binding activity in stimulated cardiomyocytes; format: cell-based, rat; conditions: cardiomyocytes stimulated with PE or FBS
MEF2 [3] = assay: 3×MEF2-luciferase MEF2-dependent reporter in transiently transfected primary neonatal rat cardiomyocytes; format: cell-based
Source text: To determine whether MEF2 was a target for hypertrophic signaling in cardiomyocytes, the inventors tested whether hypertrophy in response to phenylephrine (PE) and fetal bovine serum (FBS) activated a MEF2-dependent reporter (3×MEF2-luciferase), containing three MEF2 binding sites.

[4] = system: GAL4-MEF2C fusion protein; assay: pG5E1b-luciferase (Gal-luc) reporter with GAL-MEF2C (complete open reading frame) in cardiomyocytes; format: cell-based, rat; conditions: for block of activation of GAL-MEF2C by PE: cardiomyocytes stimulated with PE
Procedure: FIG. 12A, FIG. 12B and FIG. 12C. CaM kinase and MAP kinase target different domains of MEF2. Primary neonatal rat cardiomyocytes in serum-free medium were transiently transfected with the indicated expression plasmids and luciferase activity was determined in cell extracts. FIG. 12A, cells were stimulated with PE (10 uM) or 10% FBS, as indicated, and expression of the MEF2-dependent reporter, 3×MEF2-luciferase, was assayed. FIG. 12B, cells transiently transfected with pG5E1b-luciferase (Gal-luc) and GAL-MEF2C were stimulated with PE, as in FIG. 12A, in the presence of KN62 or SB202190, as indicated. FIG. 12C, cells were transiently transfected with pG5E1b-luciferase and GAL-MEF2C (left panel) or GAL-MEF2C-ΔN (right panel) along with activated CaMKIV and MKK6, as indicated.

Structure (SMILES)	activation of GAL4-MEF2C fusion protein (C-terminus of MEF2C) [1]	amount of MEF2 DNA binding activity (MEF2 [2])	activation of a reporter containing a mutant MEF2 site (MEF2 [3]; cardiomyocytes, PE or FBS)	activation of MEF2-dependent reporter (3×MEF2-luciferase) (MEF2 [3]; primary neonatal rat cardiomyocytes, serum-free medium, PE 10 uM or 10% FBS)	activity of GAL4-MEF2C fusion protein (complete open reading frame of MEF2C) ([4]; cardiomyocytes, PE or FBS)	block of activation of GAL-MEF2C by PE [4]
CNC[C@H](O)c1cccc(O)c1 [PE, phenylephrine]	activated	unchanged	not a reporter containing a mutant MEF2 site	stimulated the MEF2 reporter	stimulated activity	–
CN([C@@H](Cc1ccc(OS(=O)(=O)c2cccc3cnccc23)cc1)C(=O)N1CCN(c2ccccc2)CC1)S(=O)(=O)c1cccc2cnccc12 [KN62]	–	–	–	–	–	partially blocked
Oc1ccc(-c2nc(-c3ccncc3)c(-c3ccc(F)cc3)[nH]2)cc1 [SB202190]	–	–	–	–	–	partially blocked
